{
  "source": "patent USRE43371E1",
  "about": "“Use of selected cyclosporins for the treatment of hepatitis C infection” (priority 2004, dated 2012)",
  "key": {"[1]": {"system": "HCV replicon-containing MH-14 cells", "details": "cited from earlier work; for HCV RNA accumulation was inhibited: Northern blot and quantitative RT-PCR"}, "[2]": {"biological_target": "T1, cyclophilin (Homo sapiens, UniProt P62937)", "T1 construct": "purchased Sigma", "T1 sequence (P62937 whole entry)": "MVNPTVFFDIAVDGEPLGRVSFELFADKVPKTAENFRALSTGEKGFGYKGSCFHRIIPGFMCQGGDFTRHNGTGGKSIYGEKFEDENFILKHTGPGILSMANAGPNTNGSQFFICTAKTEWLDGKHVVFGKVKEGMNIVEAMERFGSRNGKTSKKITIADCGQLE", "assay": "Peptidyl-prolyl cis-trans isomerase (PPIase) activity of cyclophilin, chymotrypsin-coupled Suc-AAPF-pNA assay", "assay_type": "biochemical", "details": "compared with substitution in position 4 only", "method": "Peptidyl-prolyl cis-trans isomerase (PPlase) activity of cyclophilins was determined using a procedure adapted from Kofron et al. (see Biochemistry 30, 6127-6134 (1991); J. Am. Chem. Soc. 114, 2670-2675 (1992)). N-succinylated Ala-Ala-Pro-Phe-para nitro-aniline (Suc-AAPF-pNA, Bachem, Bubendorf, Switzerland) was used as the substrate. The assay was based on the preferential chymotrypsin cleavage of the trans isoform of the Phe-pNA bond in the tetrapeptide Ala-Ala-Pro-Phe-pNA. This cleavage liberates the para-nitroaniline moiety that can be detected and quantitated at 390 nm (ε=11,814 M^−1cm^−1). […] Cis-trans isomerization is catalysed by cyclophilin (PPlase, EC 5.2.1.8). […] Subsequent to the addition of 3.75 mg of chymotrypsin (70 μl of a solution of chymotrypsin in 10 mM HCl), the reaction was initiated by addition of 10 μl of a 3.2 mM solution of Suc-AAPF-pNA in 0.5 M LiCl/trifluoroethanol. The reaction was monitored for 3 min, and an initial rate constant was determined from the data obtained. As a control, an initial rate constant was also determined for a parallel reaction that lacked cyclophilin."}, "[3]": {"system": "CD4+ PBMCs", "assay": "Mixed lymphocyte reaction, proliferative response of CD4+ PBMCs", "assay_type": "cell-based", "details": "for immunosuppressive activity (interpretation of Table 2): mixed lymphocyte reaction, 1 μg/ml; for % Stimulation (relative): cyclosporin 1 μg/ml, five days, [3H]-thymidine incorporation", "description": "In this assay, cyclosporins were dissolved in ethanol (10 mg/ml). Freshly isolated CD4^+ PBMCs from two healthy donors were mixed subsequent to inactivation by irradiation of one of the populations (stimulator cells; S). […] R) was determined by [^3H]-thymidine incorporation. The assay was conducted reciprocally with the two cell populations, each being inactivated and stimulated in turn. Stimulation (%) of responder cells was calculated by the formula: […] Sample refers to a mixture of stimulator and responder cells. Background represents a control in which only stimulator cells are mixed."}, "[4]": {"system": "Jc1-Luc recombinant virus (HCV strains J6/JFH1) in Huh-7-Lunet and Huh-7.5 cells", "assay": "Luciferase assay in hepatoma cells infected with Jc1-Luc recombinant HCV", "assay_type": "cell-based, hepatitis C virus (HCV)", "details": "Huh-7-Lunet and Huh-7.5 cells infected with Jc1-Luc; for antiviral activity: 72 hours (FIGS. 1 and 2)", "text": "The method used hepatoma cells that had been infected with an infectious full length cheieric HCV construct or the same virus that was modified to carry a luciferase […] gene.\nInfectious HCV viruses of full-length chimeric genome between HCV strains J6 and JFH1 (Jc1) were used to inoculate the hepatoma cells of the assays. The construct of Jc1 virus was also modified to obtain a bicistronic genome carrying a luciferase reporter gene (Jc1-Luc). Twenty-four and ninety-six hours after the transfection of RNA transcripts of the genomes by electroporation of Huh-7.5 cells, cell culture supernatant was collected. Supernatants were filtered ([…]) and cell culture infectious dose 50 (CCID50) per ml were determined by the limiting dilution assays according to Lindenbach et al. (Science, 309, (2005), 623-626). The CCID50 were 1.3×105 for Jc1 and 4.2×103 for Jc1-Luc.\nAssays used either Huh-7-Lunet or Huh-7.5 cells (Lohmann et al., Science 285(5424), (1999), 110-113). Cells were grown in Dulbecco's modified Eagle's Medium (DMEM; Gibco) supplemented with 10% heat-inactivated fetal bovine serum (FCS) (Integro), 1× non-essential amino acids (Gibco), 100 IU/ml penicillin (Gibco), 100 μg/ml streptomycin (Gibco) or 25 μg/ml hygromycin (Gibco) for Huh-mono cells at 37° C. and 5% CO2. For antiviral (replication) assays, Huh-7-Lunet and Huh-7.5 cells were seeded at a density of 2×104 or 4×10^4 cells per well of a 12-well plate. Twenty four hours later, the medium was replaced by 0.5 ml of the Jc1-Luc virus stock (12-well plates) or 0.25 ml of the Jc1 virus stock (12-well plates).\nThe inhibition of viral replication were estimated by luciferase assay. To carry out luciferase assay, cells were harvested, washed with PBS and lysed in luciferase lysis buffer (1% Triton X-100, 25 mM glycylglycine, 15 mM MgSO4, 4 mM EGTA, and 1 mM DTT). Firefly luciferase activity was measured according to Krieger et al. (J Virol, 75(10), (2001), 4614-4624). […] Finally, luminescence was measured by using a Lumat LB9507 luminometer (Berthold) for 20 samples."}, "[5]": {"biological_target": "T2, human recombinant cyclophilin A (Homo sapiens, UniProt P62937)", "T2 construct": "purchased Sigma", "T2 sequence (P62937 whole entry)": "as above", "assay": "PPIase activity of cyclophilin A, tight binding inhibitor analysis", "assay_type": "biochemical", "details": "for k: rate constant for the rate limiting reaction; for Et: total enzyme concentration from tight binding fit", "description": "Commercial human recombinant cyclophilin A (Sigma) was used in the assays. PPlase activity of cyclophilins was determined using a chymotrypsin-coupled spectrophotometric assay according to Garcia-Echverria et al. (BBRC, 191, (1993), 70-75). This method is based on the high trans selectivity of chymotrypsin for peptides of the type N-succinyl-ala-ala-pro-phe-p-nitroanilide. The peptides cleavage liberated the para-nitroaniline moiety that could be detected and quantitated at 390 nm. The hydrolysis of the cis form was limited by the rate of cis-trans isomerisation carried out by cyclophilin A. The peptide was made up in a solution of […] LiCl in 2,2,2-trifluoroethanol at 470 mM to enhance the cis conformer peptides population. The assay was performed on the split beam spectrophotometer and the water bath was set at 5° C. Cyclophilin A (7500 pmol/mg total enzyme concentration; Sigma) were dissolved at 20 nM in a buffer (35 mM HEPES and 0.26 mg/ml chymotrypsin (specific activity 50 units/mg), pH 7.8 with KOH) and were incubated for 6 minutes at room temperature followed by 54 minutes in the water bath. […] Then 3.5 ml of the incubated cyclophilin was added to the sample cuvette. […] Peptide was added at 25 μM to initiate the reaction and the change in absorbance was monitored at 10 data points per second. As a control, rates were also determined for a parallel reaction that lacked cyclophilin. These blank rates of peptide hydrolysis (i.e. in the absence of cyclophilin) were subtracted from rates in the presence of cyclophilin A.\nThe initial rates obtained from the PPlase assays were analysed by first order regression analysis by using first order transformation of the traces of the time course of the change in the absorbance at 390 nm. Total enzyme concentration (Et), the inhibitor dissociation constant (Ki) and the rate constant for the rate limiting reaction was calculated with the software FigSyS (2003, Biosoft) by fitting the data obtained from the regression analysis in the tight binding inhibitor multiprotein equation.\nOnce Et, Ki and k were calculated by the computer for a given set of data, a graphic representation of the data was plotted and the line fitted to the points assuming tight inhibitor binding to a single protein, defined by the following equations: v=K*Et*P−K(B−sqrt(B*B−4*C))/2 where B=Et*P+I+Ki and C=Et*P*I."}, "[6]": {"system": "HCV replicon in Huh-9-13 cells", "assay": "HCV replicon clearance and rebound in Huh-9-13 cells", "assay_type": "cell-based, hepatitis C virus (HCV)", "details": "after 7 consecutive passages at 0.5 or 1 μg/ml; G418 1000 μg/ml for 2 passages (FIG. 3)", "method": "Assays used Huh-9-13 cells, human hepatoma cells (Huh-7) (Lohmann et al., Science 285(5424), (1999), 110-113) Cells were grown in the usual complete medium DMEM without G418 pressure.\nRT-PCR were performed on extracts of viral RNA of samples taken at different passage points. The forward and reverse primers used were 5′-[sequence]-3′ and 5′-[sequence]-3′, respectively. The fluorogenic probe was 5′-[sequence]-3′. As an internal control, a plasmid containing part of the neomycin phosphotransferase gene sequence was used. Results were analysed and expressed as a quantity of replicon RNA (ng) per 1′000 cells and used to draft a graph."}, "[7]": {"assay": "Initial phase I clinical studies, safety of oral doses", "assay_type": "in vivo", "description": "Initial phase I clinical studies were carried out to assess the safety of oral doses of [D-MeAla]^3-[EtVal]^4-CsA, and to determine the pharmacokinetic profile and safety profile of the drug substance. […] These side effects were not dose-related."}, "[8]": {"system": "HCV replicon (genotype 1 b) in Huh 5-2 cells", "description": "(§1) Assays used Huh 5-2 cells that contained a bicistronic RNA encoding a firefly luciferase-ubiquitin-neomycin phosphotransferase fusion protein and HCV proteins NS3-5. The viral sequences originated from an HCV virus of genotype 1 b. Cells were cultured in RPMI 1640 medium (Gibco) supplemented with 10% fetal calf serum, 2 mM glutamine (Life Technologies), 1× non-essential amino acids (Life Technologies), 100 u/ml penicillin, 100 μg/ml streptomycin and 250 μg/ml G418 (Geneticin, Life Technologies) at 37° C. and 5% CO2. For antiviral (replication) assays, cells were seeded at a density of 7000 cells/well in 96-well View Plates™ (Packard) in the same medium except for G418. After a 24-h incubation, medium was removed, serial dilutions of test compounds in medium were added, and cells were incubated for an additional 72 h.\nAntiviral effects were estimated either by luciferase assay or quantitative RT-PCR. To carry out luciferase assays, medium was removed, and cells were washed with PBS. Subsequent to lysis in 50 μl of Glo-lysis buffer (Promega) for 15 min, 50 μl of Stead-Glo Luciferase Assay Reagent (Promega) were added to cell lysates. Luciferase activity was measured using a luminometer, and the signal from each test well was expressed as a percentage of the signal measured in wells of cultures not exposed to a test compound. […]"}, "[9]": {"system": "HCV replicon (genotype 1 b) in Huh 5-2 cells", "details": "EC50 derived from RNA titers by quantitative RT-PCR; asterisk = lower of two independently determined values", "description": "as §1\nResults from these experiments permitted calculation of EC50 for the different cyclosporins, which is the effective concentration required to inhibit HCV replicon replication by 50%, and of CC50, which is the concentration required that inhibits the proliferation of exponentially growing cells by 50%, and a selectivity index SI, which is the ratio between CC50 and EC50."}},
  "data": [
    {"molecule": "C/C=C/C[C@@H](C)C(=O)[C@H]1C(=O)N[C@@H](C(C)C)C(=O)N(C)CC(=O)N(C)[C@@H](CC(C)C)C(=O)N[C@@H](C(C)C)C(=O)N(C)[C@@H](CC(C)C)C(=O)N[C@@H](C)C(=O)N[C@H](C)C(=O)N(C)[C@@H](CC(C)C)C(=O)N(C)[C@@H](CC(C)C)C(=O)N(C)[C@@H](C(C)C)C(=O)N1C", "note": "[PSC 833]", "values": [
      {"measurement": "HCV RNA accumulation was inhibited", "setting": "[1]; MH-14 cells", "result": "not"}
    ]},
    {"molecule": "C/C=C/C[C@@H](C)[C@@H](O)[C@H]1C(=O)N[C@@H](CC)C(=O)N(C)[C@H](C)C(=O)N(CC)[C@@H](C(C)C)C(=O)N[C@@H](C(C)C)C(=O)N(C)[C@@H](CC(C)C)C(=O)N[C@@H](C)C(=O)N[C@H](C)C(=O)N(C)[C@@H](CC(C)C)C(=O)N(C)[C@@H](CC(C)C)C(=O)N(C)[C@@H](C(C)C)C(=O)N1C", "note": "[[D-MeAla]^3-[EtVal]^4-CsA]", "values": [
      {"measurement": "further increase in cyclophilin binding activity by substitution in position 3", "setting": "[2]", "result": "≥ 2", "unit": "fold"},
      {"measurement": "immunosuppressive activity (interpretation of Table 2)", "setting": "[3]", "result": "essentially devoid of immunosuppressive activity"},
      {"measurement": "antiviral activity", "setting": "[4]", "result": "dose-dependent antiviral activity"},
      {"measurement": "higher affinity for cyclophilin compared to [MeIle]4-CsA", "setting": "[5]; cyclophilin A", "result": "~6", "unit": "fold"},
      {"measurement": "k", "setting": "[5]", "result": "0.16 ± 0.0074", "unit": "s − 1"},
      {"measurement": "Et", "setting": "[5]", "result": 7500, "unit": "pmol/mg"},
      {"measurement": "outcome of cultures in the presence of G418 (rebound phase)", "setting": "[6]", "result": "the cultures died"},
      {"measurement": "tolerability of oral doses", "setting": "[7]; doses of 50 to 1600 mg in a micro-emulsion in water", "result": "well tolerated"},
      {"measurement": "side effects", "setting": "[7]; oral doses 50 to 1600 mg, not dose-related", "result": "Mild and short-lived side effects were observed including nausea, vomiting, abdominal pain, mild headaches"}
    ]},
    {"molecule": "C/C=C/C[C@@H](C)[C@@H](O)[C@H]1C(=O)N[C@@H](CC)C(=O)N(C)CC(=O)N(C)[C@@H]([C@@H](C)CC)C(=O)N[C@@H](C(C)C)C(=O)N(C)[C@@H](CC(C)C)C(=O)N[C@@H](C)C(=O)N[C@H](C)C(=O)N(C)[C@@H](CC(C)C)C(=O)N(C)[C@@H](CC(C)C)C(=O)N(C)[C@@H](C(C)C)C(=O)N1C", "note": "[[MeIle]^4-CsA]", "values": [
      {"measurement": "% Stimulation (relative)", "setting": "[3]; co-culture R1 × S2", "result": 84, "unit": "%"},
      {"measurement": "% Stimulation (relative)", "setting": "[3]; co-culture R2 × S1", "result": 75, "unit": "%"},
      {"measurement": "immunosuppressive activity (interpretation of Table 2)", "setting": "[3]", "result": "essentially devoid of immunosuppressive activity"},
      {"measurement": "EC50 +/− Std. Dev.", "setting": "[8]; luciferase assay, 72 h", "result": 0.22, "unit": "µg/mL"},
      {"measurement": "Selectivity index", "setting": "[8]; ratio between CC50 (MTT) and EC50 (luciferase)", "result": 64},
      {"measurement": "SI values", "setting": "[9]", "result": 73},
      {"measurement": "k", "setting": "[5]", "result": "0.17 ± 0.0068", "unit": "s − 1"},
      {"measurement": "Et", "setting": "[5]", "result": 7500, "unit": "pmol/mg"},
      {"measurement": "effectiveness in reducing HCV RNA titer relative to CsA", "setting": "[1]; MH-14 cells", "result": "about equally as effective as CsA"}
    ]},
    {"molecule": "Cyclosporin A [CsA]", "values": [
      {"measurement": "higher concentration needed for the same replication inhibiting effect as [D-MeAla]3-[EtVal]4-CsA", "setting": "[4]", "result": 10, "unit": "fold"},
      {"measurement": "antiviral activity", "setting": "[4]", "result": "dose-dependent antiviral activity"},
      {"measurement": "k", "setting": "[5]", "result": "0.17 ± 0.0069", "unit": "s − 1"},
      {"measurement": "Et", "setting": "[5]", "result": 7500, "unit": "pmol/mg"},
      {"measurement": "reduction of HCV RNA titer", "setting": "[1]; 7-day exposure, 1 μg/ml", "result": "about 200 fold"},
      {"measurement": "HCV RNA accumulation was inhibited", "setting": "[1]; MH-14 cells", "result": "inhibited"}
    ]}
  ]
}
